Test results taken from ChEMBL document CHEMBL3046899, “2D-QSAR of non-benzodiazepines to benzodiazepines receptor (BZR)” (Med Chem Res, 2009).

Assays:
[1] = Binding affinity to GABA-A receptor benzodiazepine site (unknown origin); design: species or system Homo sapiens
[2] = biological target: GABA-A receptor; anion channel; assay: Displacement of [3H]flunitrazepam from Rattus norvegicus (rat) brain GABA-A receptor benzodiazepine site
[3] = biological target: GABA-A receptor; anion channel; assay: Binding affinity to Rattus norvegicus (rat) brain GABA-A receptor benzodiazepine site

pIC50 [1] | Structure (SMILES) | other results
7.01 | CCCCOc1cc2c(cn1)[nH]c1ccccc12 | –
5.4 | Oc1cc2c(cn1)[nH]c1ccccc12 | –
6.9 | O=[N+]([O-])c1cc2c(cn1)[nH]c1ccccc12 | –
8 | CC(=O)C(=O)c1cc2c(cn1)[nH]c1ccccc12 | –
– | CCc1c(OC)nc2nc(C(=O)c3ccccc3)cn2c1CC | pIC50 [2]: 7.252
4.6 | Nc1cc2c(cn1)[nH]c1ccccc12 | –
– | CNc1nc2c(N(C)C)ncnc2n1Cc1cccc(C)c1 | pIC50 [3]: 5.14
7.35 | Clc1cc2c(cn1)[nH]c1ccccc12 | –
6.64 | CCCCc1cc2c(cn1)[nH]c1ccccc12 | –
6.12 | CC(C)(C)COC(=O)c1cc2c(cn1)[nH]c1ccccc12 | –
6.29 | CC(C)Oc1cc2c(cn1)[nH]c1ccccc12 | –
6.91 | COc1cc2c(cn1)[nH]c1ccccc12 | –
7.62 | CCOc1cc2c(cn1)[nH]c1ccccc12 | –
7.96 | CCCOc1cc2c(cn1)[nH]c1ccccc12 | –
– | CCCc1c(OC)nc2nc(C(=O)c3ccccc3)cn2c1CC | pIC50 [2]: 7.328
5.12 | CCc1nc(C(=O)OC)cc2c1[nH]c1ccccc12 | –

Structure (SMILES) | pIC50 [1] | other results
S=C=Nc1cc2c(cn1)[nH]c1ccccc12 | 8.1 | –
Cc1nccc2c1[nH]c1ccccc12 [HARMAN] | 4.91 | –
CCOC(=O)c1ncc2[nH]c3ccc(OCc4ccccc4)cc3c2c1COC | 9 | –
CCOC(=O)c1cc2c(cn1)[nH]c1ccccc12 | 8.3 | –
c1ccc2c(c1)[nH]c1cnccc12 [NORHARMANE] | 5.79 | –
COC(=O)c1cc2c(cn1)[nH]c1ccccc12 [BETA-CCM] | 8.3 | –
CCCC(=O)c1cc2c(cn1)[nH]c1ccccc12 | 7.64 | –
